Patent publication US11179474B1, “Nanoparticle-based liver-targeting therapy and imaging” (priority 2015, dated 2021)
Where no end group is shown, it is not given here.

Assays:
[1] = system: HepG2; test: MTT cell viability assay, payload-carrying LacLL nanoparticles vs free drug; assay type: cell-based, human; details: for IC50: HepG2, concentration based on drug amount, FIG. 7: 72 h after treatment
Method: The human hepatocellular carcinoma cell line HepG2 was used in the assay.
HepG2 cells were grown in a T-75 flask. For the transfer of the cell the medium was removed from the flask and the cells were trypsinated for 5 minutes. The cells were collected in a Falcon tube and diluted with complete cell medium. The cell counting was conducted in a Neubauer chamber. A cell solution was prepared to seed 4000 cells per well (200 μL per well). The microtiter plate was incubated for 24 h at 37° C.
For each NP and drug, formulations in cell medium were prepared. The compounds were tested in different concentrations (0.01, 0.05, 0.2, 1, 5, 25 and 125 μM based on drug amount). For the treatment, the cell medium was removed from all wells and exchanged for drug formulations. 200 μl of treatments per triplicate was added to each well. The microtiter plates were incubated for 24 h, 48 h and 72 h at 37° C.
1.5 mL MTT solution (8.0 mg in 1.6 mL DMSO) was diluted with complete cell medium (phenol-red free). The treatment cell medium was removed from the microtiter plate, the wells were washed with 100 μL PBS and 100 μL of the MTT reactive solution was added to each well. After one hour incubation at 37° C. the MTT solution was removed and 100 μL DMSO was added to dissolve the formazan dye. Absorbance was measured at 570 nm.
Data were analysed using OriginPro8. The normalized data were plotted and the curve was fitted using a non-linear regression curve fit (sigmoidal dose-response curve with variable slope). The Absolute IC50 values were obtained by interpolation.

[2] = system: HCC cells; test: In vitro targeting of GNPs to HCC cells (counts per field at 20x magnification); assay type: cell-based; details: relative to base GNP lacking the peptide
Description: (SEQ ID NO: 1), via its N-terminus (approx. 4 peptide molecules per nanoparticle).
Several base/peptide targeted GNPs were screened in vitro. GNPs having a mixed corona comprising galactose-C2-SH (Gal-C2) ligands and HSPEG8COOH were synthesised according to methodology analogous to that described above in Examples 1 and 2, with however galactose-C2-SH replacing glucose-C2-SH and HSPEG8COOH (also abbreviated SH-EG6-COOH or SH—(OCH2CH2)6-COOH) replacing the amino linker NH2-EG6-SH.
The glypican-3 peptide described in U.S. Pat. No. 8,388,937B2 (the contents of which are expressly incorporated herein by reference)—see SEQ ID NO: 1 thereof, which has the amino acid sequence: […] (SEQ ID NO: 1) was linked to the terminal COOH group of a proportion of the HSPEG8COOH ligands via the N-terminus of said peptide. In a “high loading” GNP construct (see row 1 in the table below), approximately 4 peptides were linked per nanoparticle core. The “high loading” Au@Gal-C2:HSPEG8COOH:HSPEG8CONH[…] The “low loading” Au@Gal-C2:HSPEG8COOH:HSPEG8CONH[…]

[3] = molecular target: T1, glypican-3 (on HCC cells) (UniProt P51654 25-554); test: in vitro targeting of GNPs to HCC cells, counts per field at 20x magnification, relative to base GNP lacking the peptide
T1 construct: whole, on cells; also called GLY-3
T1 sequence (P51654 25-554 limits assumed, form in doubt): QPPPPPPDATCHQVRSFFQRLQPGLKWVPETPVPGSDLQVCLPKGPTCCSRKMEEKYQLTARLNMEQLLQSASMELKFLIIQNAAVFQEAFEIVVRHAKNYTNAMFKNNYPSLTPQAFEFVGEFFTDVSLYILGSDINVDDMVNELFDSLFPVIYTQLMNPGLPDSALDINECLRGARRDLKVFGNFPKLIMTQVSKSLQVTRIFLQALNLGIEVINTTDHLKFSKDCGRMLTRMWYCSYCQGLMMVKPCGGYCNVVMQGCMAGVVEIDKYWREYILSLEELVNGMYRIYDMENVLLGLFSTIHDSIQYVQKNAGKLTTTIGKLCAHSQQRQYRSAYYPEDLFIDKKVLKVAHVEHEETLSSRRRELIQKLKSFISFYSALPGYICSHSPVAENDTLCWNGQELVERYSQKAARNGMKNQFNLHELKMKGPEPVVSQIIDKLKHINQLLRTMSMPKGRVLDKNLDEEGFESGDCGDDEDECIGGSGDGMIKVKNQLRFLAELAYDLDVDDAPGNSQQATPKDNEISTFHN

[4] = molecular target: T1, glypican-3 (on HCC cells); test: in vitro targeting of GNPs to HCC cells, relative to base nanoparticle lacking the peptide
[5] = molecular target: T1, glypican-3 (on HCC cells); test: in vitro targeting of GNPs to HCC cells, relative to base GNP lacking the peptide

COc1cccc2c1C(=O)c1c(O)c3c(c(O)c1C2=O)C[C@@](O)(C(=O)CO)C[C@@H]3O[C@H]1C[C@H](N)[C@H](O)[C@H](C)O1 [Doxorubicin, doxorubicin]
cytotoxicity, free drug compared with pay-loaded nanoparticle ([1]; HepG2, MTT): slightly higher cytotoxicity

GNP-GalC2(50)-AL(50)-(Ac)YFLTTRQ
Fold-targeting (over base particle) ([2]; listed as Au@GalC2:AL:AL-(Ac)-YFLTTRQ): approximately 5 fold

GNP-GalC2-HSPEG8COOH-HSPEG8CONHRLNVGGTYFLTTRQ ″low loading″ (not fully specified (N-terminus); printed as GNP-GalC2-HSPEG8COOH-HSPEG8CONHRLNVGGTYFLTTRQ ″low loading″; also: on gold nanoparticle with galactose-C2 corona)
Fold-targeting (over base particle) ([2]; listed as “low loading” Au@Gal-C2:HSPEG8COOH:HSPEG8CONHRLNVGGTYFLTTRQ): approximately 4.6 fold

GNP-GalC2-HSPEG8COOH-HSPEG8CONHRLNVGGTYFLTTRQ ″high loading″ (not fully specified (N-terminus); also: on gold nanoparticle with galactose-C2 corona)
Fold-targeting (over base particle) ([2]; listed as “high loading” Au@Gal-C2:HSPEG8COOH:HSPEG8CONHRLNVGGTYFLTTRQ): approximately 7 fold

platinum-(IV)-succinate
IC50 [1]: 38.6 µM
IC50 ([1]; listed as Pt(IV)-succinate): 38.6 µM

B1: GNP-GalC2-HSPEG8COOH-HSPEG8CO… ″high loading″ (peptide)
peptide: RLNVGGTYFLTTRQ
modifications: not fully specified (N-terminus); also: on gold nanoparticle with galactose-C2 corona
notes: Gold nanoparticle with a corona of galactose-C2 and HSPEG8COOH ligands; Approximately 4 peptides per nanoparticle core, so the copy number is approximate; also called "high loading" Au@Gal-C2:HSPEG8COOH:HSPEG8CO… GNPs
Fold-targeting (over base particle) [3]: 7.1 fold

B2: GNP-GalC2(50)-AL(50)-(Ac)YFLTTRQ (peptide)
peptide: YFLTTRQ
modifications: not fully specified (N-terminus); printed as GNP-GalC2(50)-AL(50)-(Ac)YFLTTRQ; also: linked via amino linker NH2-EG6-SH to gold nanoparticle with galactose-C2 corona
notes: Gold nanoparticle with a corona of galactose-C2-SH and amino linker in approximately 50:50 ratio; also called Au@GalC2:AL:AL-(Ac)-YFLTTRQ
Fold-targeting (over base particle) [4]: 5 fold

B3: GNP-GalC2-HSPEG8COOH-HSPEG8CO… ″low loading″ (peptide)
peptide: RLNVGGTYFLTTRQ
modifications: not fully specified (N-terminus); printed as GNP-GalC2-HSPEG8COOH-HSPEG8CONHRLNVGGTYFLTTRQ ″low loading″; also: on gold nanoparticle with galactose-C2 corona
notes: Same construct as the high loading GNP but with fewer peptides per nanoparticle; also called "low loading" Au@Gal-C2:HSPEG8COOH:HSPEG8CO… GNPs
Fold-targeting (over base particle) [5]: 4.6 fold
